Structures can show the parent of a compound that is named as a salt.
Assays:
[1] = molecular target: 72 kDa type IV collagenase (Pig, UniProt Q95JA4); assay: MMP-2 Inhibition Assay
Description: Gelatinase A (MMP-2) and TNBS were purchased from Sigma, and the substance was synthesized as described by Vijaykumar et al. The gelatinase, substance, and inhibitor were dissolved in sodium borate (pH8.5, 50 mmol/L) and incubated for 30 min at 37 °C, and then 0.03 % TNBS was added and incubated for another 20 min, the resulting solution was detected under 450 nm wavelength to gain absorption.

Aminopeptidase N = molecular target: T1, Aminopeptidase N (Sus scrofa, UniProt P15145); assay: APN Inhibition Assay; settings: pH 7.5; 25 °C
T1 sequence (P15145 whole entry): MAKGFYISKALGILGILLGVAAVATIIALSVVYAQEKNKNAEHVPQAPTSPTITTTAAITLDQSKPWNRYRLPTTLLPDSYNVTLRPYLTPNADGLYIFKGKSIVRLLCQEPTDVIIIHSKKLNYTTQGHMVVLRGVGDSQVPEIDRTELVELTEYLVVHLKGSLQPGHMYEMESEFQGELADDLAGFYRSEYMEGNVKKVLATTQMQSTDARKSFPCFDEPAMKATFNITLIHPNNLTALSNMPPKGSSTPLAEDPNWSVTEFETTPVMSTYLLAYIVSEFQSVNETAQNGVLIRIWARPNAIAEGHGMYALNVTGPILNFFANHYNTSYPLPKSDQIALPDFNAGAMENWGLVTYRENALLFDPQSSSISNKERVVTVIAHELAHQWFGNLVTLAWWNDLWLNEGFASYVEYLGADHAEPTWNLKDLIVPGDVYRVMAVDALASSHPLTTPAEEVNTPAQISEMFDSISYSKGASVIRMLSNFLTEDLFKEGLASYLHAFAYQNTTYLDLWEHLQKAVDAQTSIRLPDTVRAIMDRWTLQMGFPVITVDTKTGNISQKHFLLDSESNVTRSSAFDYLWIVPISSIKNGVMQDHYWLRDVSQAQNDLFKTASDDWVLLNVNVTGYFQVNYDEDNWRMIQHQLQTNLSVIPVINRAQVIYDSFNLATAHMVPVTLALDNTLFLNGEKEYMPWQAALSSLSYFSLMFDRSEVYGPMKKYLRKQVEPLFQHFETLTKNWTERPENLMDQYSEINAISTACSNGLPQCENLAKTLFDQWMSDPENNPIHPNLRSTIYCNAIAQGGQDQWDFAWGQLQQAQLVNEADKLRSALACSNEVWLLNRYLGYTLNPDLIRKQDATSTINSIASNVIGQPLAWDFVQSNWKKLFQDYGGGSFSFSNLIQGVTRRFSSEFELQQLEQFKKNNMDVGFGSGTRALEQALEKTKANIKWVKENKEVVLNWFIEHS
Description: IC50 values against APN from Porcine Kidney were determined by using L-Leu-p-nitroanilide as a substrate. All the solutions of the inhibitors were prepared in the assay buffer( pH 7.5). All the inhibitors were preincubated with APN for 5 min at room temperature. The assay mixture, which contained the inhibitor solution (concentration dependent on the inhibitor), the enzyme solution (4 mg/mL final concentration), and the assay buffer, was adjusted to 200 μL, and then incubated at 37 ℃ for 30 min.

Sequence of 72 kDa type IV collagenase (Q95JA4 whole entry): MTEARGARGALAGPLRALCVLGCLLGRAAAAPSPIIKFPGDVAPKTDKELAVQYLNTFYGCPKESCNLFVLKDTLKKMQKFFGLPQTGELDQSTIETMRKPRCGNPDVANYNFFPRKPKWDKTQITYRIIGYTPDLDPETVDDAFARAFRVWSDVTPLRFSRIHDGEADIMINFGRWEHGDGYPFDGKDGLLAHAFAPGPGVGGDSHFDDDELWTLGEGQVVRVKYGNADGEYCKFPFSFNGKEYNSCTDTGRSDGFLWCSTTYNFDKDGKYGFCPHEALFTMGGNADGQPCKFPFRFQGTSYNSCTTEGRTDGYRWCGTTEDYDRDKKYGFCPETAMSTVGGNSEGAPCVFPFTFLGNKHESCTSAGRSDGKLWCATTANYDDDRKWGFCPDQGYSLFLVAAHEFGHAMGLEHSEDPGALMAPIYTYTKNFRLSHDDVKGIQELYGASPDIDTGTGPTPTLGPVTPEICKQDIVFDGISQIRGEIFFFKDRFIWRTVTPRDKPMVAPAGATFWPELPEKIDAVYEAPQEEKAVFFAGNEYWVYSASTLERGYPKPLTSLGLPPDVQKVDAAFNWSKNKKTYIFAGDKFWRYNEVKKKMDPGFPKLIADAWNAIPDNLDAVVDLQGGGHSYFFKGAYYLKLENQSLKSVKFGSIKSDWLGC

Row | SMILES | IC50 [1] | IC50 (Aminopeptidase N)
1 | CC(C)[C@H](NC(=O)[C@H](O)[C@@H](N)c1ccccc1)C(=O)NO [(S)-2-((2R,3S)-3-amino-2-hydroxy-3-phenylpropanamido)-N-hydroxy-3-methylbutanamide hydrochloride (7b)] | 128 µM | 76.9 µM
2 | N[C@@H](c1ccccc1)[C@@H](O)C(=O)N[C@@H](Cc1ccccc1)C(=O)O [(S)-2-((2R,3S)-3-amino-2-hydroxy-3-phenylpropanamido)-3-phenylpropanoic acid hydrochloride (5f)] | 497 µM | 
3 | CC(C)C[C@H](NC(=O)[C@H](O)[C@@H](N)c1ccccc1)C(=O)NC(C(=O)O)c1ccccc1 (stereo partly drawn) [(S)-2-((S)-2-((2R,3S)-3-amino-2-hydroxy-3-phenylpropanamido)-4-methylpentanamido)-2-phenylacetic acid hydrochloride (5k)] | 186 µM | 
4 | N[C@@H](c1ccccc1)[C@@H](O)C(=O)N[C@H](C(=O)NO)c1ccccc1 [(2R,3S)-3-amino-2-hydroxy-N-((S)-2-(hydroxyamino)-2-oxo-1-phenylethyl)-3-phenylpropanamide hydrochloride (7e)] | 213 µM | 1.26 µM
5 | CC(C)C[C@H](NC(=O)[C@H](Cc1ccccc1)NC(=O)[C@H](O)[C@@H](N)c1ccccc1)C(=O)O [(S)-2-((S)-2-((2R,3S)-3-amino-2-hydroxy-3-phenylpropanamido)-3-phenylpropanamido)-4-methylpentanoic acid hydrochloride (5n)] |  | 105 µM
6 | CCC(C)[C@H](NC(=O)[C@H](O)[C@@H](N)c1ccccc1)C(=O)O (stereo partly drawn) [(2S)-2-((2R,3S)-3-amino-2-hydroxy-3-phenylpropanamido)-3-methylpentanoic acid hydrochloride (5d)] | 264 µM | 
7 | N[C@@H](c1ccccc1)[C@@H](O)C(=O)N[C@@H](Cc1ccccc1)C(=O)NO [(2R,3S)-3-amino-2-hydroxy-N-((S)-1-(hydroxyamino)-1-oxo-3-phenylpropan-2-yl)-3-phenylpropanamide hydrochloride (7f)] | 249 µM | 44 µM
8 | CC(C)[C@H](NC(=O)[C@H](O)[C@@H](N)c1ccccc1)C(=O)O [(S)-2-((2R,3S)-3-amino-2-hydroxy-3-phenylpropanamido)-3-methylbutanoic acid hydrochloride (5b)] | 287 µM | 
9 | Cc1ccccc1NC(=O)[C@H](CC(C)C)NC(=O)[C@H](O)[C@@H](N)c1ccccc1 [(S)-2-((2R,3S)-3-amino-2-hydroxy-3-phenylpropanamido)-4-methyl-N-o-tolylpentanamide hydrochloride (9b)] |  | 363 µM

Continued by falling IC50 [1], values first:

Row | IC50 [1] | IC50 (Aminopeptidase N) | SMILES
10 | 690 µM | 590 µM | CC(C)C[C@H](NC(=O)[C@H](O)[C@@H](N)c1ccccc1)C(=O)N[C@H](C(=O)O)C(C)C [(S)-2-((S)-2-((2R,3S)-3-amino-2-hydroxy-3-phenylpropanamido)-4-methylpentanamido)-3-methylbutanoic acid hydrochloride (5i)]
11 | 562 µM |  | N[C@@H](c1ccccc1)[C@@H](O)C(=O)N[C@@H](CO)C(=O)O [(S)-2-((2R,3S)-3-amino-2-hydroxy-3-phenylpropanamido)-3-hydroxypropanoic acid hydrochloride (5h)]
12 | 424 µM | 513 µM | CC(C)C[C@H](NC(=O)[C@H](CC(C)C)NC(=O)[C@H](O)[C@@H](N)c1ccccc1)C(=O)O [(S)-2-((S)-2-((2R,3S)-3-amino-2-hydroxy-3-phenylpropanamido)-4-methylpentanamido)-4-methylpentanoic acid hydrochloride (5j)]
13 | 407 µM |  | N[C@@H](c1ccccc1)[C@@H](O)C(=O)N[C@@H](Cc1ccc(O)cc1)C(=O)O [(S)-2-((2R,3S)-3-amino-2-hydroxy-3-phenylpropanamido)-3-(4-hydroxyphenyl) propanoic acid hydrochloride (5g)]
14 | 299 µM | 173 µM | N[C@@H](c1ccccc1)[C@@H](O)C(=O)N[C@@H](Cc1ccc(O)cc1)C(=O)NO [(2R,3S)-3-amino-2-hydroxy-N-((S)-1-(hydroxyamino)-3-(4-hydroxyphenyl)-1-oxopropan-2-yl)-3-phenylpropanamide hydrochloride (7g)]
15 | 292 µM | 158 µM | N[C@@H](c1ccccc1)[C@@H](O)C(=O)N[C@@H](CO)C(=O)NO [(2R,3S)-3-amino-2-hydroxy-N-((S)-3-hydroxy-1-(hydroxyamino)-1-oxopropan-2-yl)-3-phenylpropanamide hydrochloride (7h)]
16 | 292 µM |  | C[C@H](NC(=O)[C@H](O)[C@@H](N)c1ccccc1)C(=O)NO [(2R,3S)-3-amino-2-hydroxy-N-((S)-1-(hydroxyamino)-1-oxopropan-2-yl)-3-phenylpropanamide hydrochloride (7c)]
17 | 273 µM | 342 µM | C[C@H](NC(=O)[C@H](O)[C@@H](N)c1ccccc1)C(=O)O [(S)-2-((2R,3S)-3-amino-2-hydroxy-3-phenylpropanamido)propanoic acid hydrochloride (5c)]
18 | 254 µM | 198 µM | N[C@@H](c1ccccc1)[C@@H](O)C(=O)N[C@H](C(=O)O)c1ccccc1 [(S)-2-((2R,3S)-3-amino-2-hydroxy-3-phenylpropanamido)-2-phenylacetic acid hydrochloride (5e)]
19 | 215 µM | 352 µM | CC(C)C[C@H](NC(=O)[C@H](O)[C@@H](N)c1ccccc1)C(=O)O [(S)-2-((2R,3S)-3-amino-2-hydroxy-3-phenylpropanamido)-4-methylpentanoic acid hydrochloride (5a)]
20 | 207 µM | 82.9 µM | CCC(C)[C@H](NC(=O)[C@H](O)[C@@H](N)c1ccccc1)C(=O)NO (stereo partly drawn) [(2S)-2-((2R,3S)-3-amino-2-hydroxy-3-phenylpropanamido)-N-hydroxy-3-methylpentanamide hydrochloride (7d)]
21 | 163 µM |  | CC(C)C[C@H](NC(=O)[C@@H](O)[C@H](N)Cc1ccccc1)C(=O)O
22 | 64.6 µM | 56.7 µM | CC(C)C[C@H](NC(=O)[C@H](O)[C@@H](N)c1ccccc1)C(=O)NO [(S)-2-((2R,3S)-3-amino-2-hydroxy-3-phenylpropanamido)-N-hydroxy-4-methylpentanamide hydrochloride (7a)]

From BindingDB's records for doi:10.3109/14756366.2012.656622 (Shandong University, 2013)
